Results on 80 compounds are retold here after the METLIN SMRT retention time set (Domingo-Almenara et al. 2019).

Each structure is given as a SMILES string.

This data set in a line: gradient 5% acetonitrile 3 min, to 50% in 2 min, to 85% in 15 min, held 3 min, 100 µL/min. Conditions: column: Zorbax Extend-C18 2.1 x 50 mm; eluents: water / acetonitrile, 0.1% formic acid. Summed up: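 The system's dead and dwell volumes were 40 μL and 900 μL, with a Zorbax Extend-C18 column (2.1 × 50 mm, 1.8 μm) run at 100 μL/min in water and acetonitrile containing 0.1% formic acid each. Pure standards were analyzed in mixtures of ~100 molecules by HPLC–quadrupole time-of-flight mass spectrometry in positive and negative ionization mode. Retention time was assigned from computationally picked, manually inspected adduct peaks.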
Compound `O=C(NCCCN1CCN(C2CCCCC2)CC1)C1CCCN(C(=O)c2cccc(Cl)c2)C1` (stereo not given) gave an RP-LC retention time of 584 s.
As to `COCC(=O)N1CCCN(c2cc(=O)n(C(C)C)c(=O)n2C(C)C)CC1`, the RP-LC retention time stood at 678 s.
Compound `O=C(Nc1nnc(C2CC(=O)N(c3ccccc3)C2)o1)c1cccc(F)c1` (stereo not given) had an RP-LC retention time of 711 s.
In the case of `O=S(=O)(Cc1ccc(-c2nc(-c3ccccc3)no2)o1)c1ccccc1` it was 1010 s; in that of `Cc1ccccc1CNC(=O)C1(C)CCCN(C(=O)Nc2ccc3c(c2)OCCO3)C1` (stereo not given), 846 s; in that of `COc1ccc(OC)c(NC(=O)N2CCN(CCn3c(C(F)(F)F)nc4cccnc43)CC2)c1`, 642 s.
In the case of `Cc1nc(-c2ccc(S(=O)(=O)N3CCN(c4ccc(N5CCOCC5)nn4)CC3)cc2)co1` it was 644 s.
In the case of `COC(=O)c1ccc(-c2nc3cnccn3c2Nc2ccccc2C)cc1` it was 906 s.
In turn, `CCOc1ccccc1-n1ccn(Cc2nc(-c3ccccc3)no2)c(=O)c1=O` displayed an RP-LC retention time of 848 s.
On to `COCCN1CCC2(CC1)CN(Cc1ccc(F)cc1Cl)Cc1ccccc1O2`, for which the RP-LC retention time is 790 s.
In the case of `O=C(Cn1cccc(-c2nc(-c3ccc(F)cc3)no2)c1=O)Nc1ccc(Br)cc1F` it was 964 s; in that of `Cc1nn(-c2nc(-c3ccc(F)cc3)cs2)c(C)c1CC(=O)N1CCCCCC1`, 1210 s; in that of `COc1ccc(OC)c2sc(NC(=O)c3cc(Cl)sc3Cl)nc12`, 1010 s.
In the case of `COc1ccc(-c2ncc3c(n2)CCN(C(=O)Nc2ccc(Cl)cc2)C3)cc1` it was 978 s; in that of `CN(CCc1ccccn1)C(=O)C1CCN(c2cnn(C)c(=O)c2)CC1`, 553 s; in that of `Cn1c(=O)sc2cc(S(=O)(=O)N3CCC(C(=O)Nc4cccc(F)c4)CC3)ccc21`, 885 s.
In the case of `COc1ccc2c(c1)C1(CCN(C(=O)c3ccc(C#N)cc3)C1)C(=O)N2` (stereo not given) it was 762 s.
`CCC(c1cccs1)N1C(=O)[C@H]2CN(S(=O)(=O)c3ccc(C)cc3C)C[C@H]2C1=O` (stereo not given in full): the RP-LC retention time turned out to be 842 s.
The value for `N#Cc1ccc(CN2C[C@@H](CO)[C@H](c3ccccn3)C2)cc1` was 569 s; that for `Cc1nc(Nc2ccc(F)cn2)sc1C(=O)N1CCN(c2ccc(F)cc2)CC1` was 861 s.
Take `CCc1ccc(C2=C(C)C(N3CCC(NC(=O)NCCCOC)CC3)=NS2(=O)=O)cc1`: the RP-LC retention time stood at 739 s.
In the case of `COc1ccc(-c2nc(Cn3ccnc3C)no2)cc1` it was 607 s; in that of `CC(C)C(=O)Nc1cccn2nc(C(C)C)nc12`, 780 s; in that of `COc1ccc(Cl)cc1NC(=O)NCc1ccnc(N2CCSCC2)c1`, 667 s.
The value for `CCOc1ccccc1C1NC(=O)N(CC(=O)Nc2ccc3c(c2)CCC3)C2=C1C(=O)OC2` (stereo not given) was 900 s; that for `Cc1ccc(Cl)cc1N1C(=O)CN(S(C)(=O)=O)CC1(C)C(=O)NC1CCCCC1` (stereo not given) was 880 s; that for `Cc1csc(-c2ccc(CNC(=O)c3cccnc3)cc2)n1` was 672 s.
The value for `CCCN1CN=C(Nc2nc(C)c3cccc(OC)c3n2)NC1` was 644 s; that for `CCOc1ccccc1NC(=O)N1CCCC1c1nc(-c2cccc(C)c2)no1` (stereo not given) was 858 s.
Regarding `Cc1nnc2ccc(-c3noc(Cc4ccc(Cl)cc4)n3)cn12`, the RP-LC retention time worked out at 868 s.
In the case of `O=C(c1cccc(Br)c1)N1CCN(c2cc(-c3cccs3)[nH]n2)CC1` it was 837 s; in that of `CCOc1ccc(NC(=O)C2CCN(C(=O)C3Sc4ccccc4NC3=O)CC2)cc1` (stereo not given), 725 s; in that of `Cc1nn2c(CNS(=O)(=O)c3ccc4c(c3)CCC4)c(-c3ccccc3)nc2s1`, 936 s.
`COc1ccc(C(=O)NC2CCN(c3ccc(=O)n(C)n3)C2)c(OC)n1` (stereo not given) displayed an RP-LC retention time of 742 s.
In the case of `Cc1noc(-c2cccc(OC3CN(C(=O)c4ccoc4)C3)c2)n1` it was 787 s; in that of `COc1ccc(-c2noc(C3CCCN3C(=O)Nc3ccc(OC)c(Cl)c3)n2)cc1` (stereo not given), 974 s.
In the case of `O=C(NC1CCCCCC1)c1cc(C2CC2)[nH]n1` it was 792 s.
In the case of `CNC(=O)[C@H](Cc1c[nH]c2ccccc12)NC(=O)[C@@H](CC(=O)NO)CC(C)C` it was 662 s.
Turning to `Cc1ccc(CN2CCN(C3CCN(C(=O)Nc4ccccc4C(F)(F)F)CC3)C(=O)C2=O)cc1`, the RP-LC retention time was found to be 810 s.
In the case of `O=C(CCc1ccc2cc[nH]c2c1)NCc1ccc(F)cc1` it was 808 s; in that of `Cn1c(=O)c(SCC(=O)NCc2ccccc2F)nc2ccccc21`, 785 s.
The value for `CSc1nc(=O)[nH]nc1Sc1ccccc1` was 800 s; that for `O=C(Nc1nccs1)C1CCCN(S(=O)(=O)c2cc(-c3noc(C4CCCC4)n3)cs2)C1` (stereo not given) was 1060 s; that for `CCn1cc(-c2nc(CC(=O)Nc3ccc(F)c(Cl)c3)cs2)c2cccnc21` was 1020 s.
In the case of `Cc1nc2c(c(=O)n1CC(=O)NCCC1=CCCCC1)CCN(Cc1ccccc1)C2` it was 666 s; in that of `Cc1oc(C2CCN(C(=O)Nc3ccccc3Cl)CC2)nc1C(=O)N(C)C`, 691 s; in that of `CCC1Oc2ccc(C)cc2N(CC(=O)NCCN(C)C)C1=O` (stereo not given), 631 s.
Turning to `CCNC(=O)N(CC(=O)N1CCc2sccc2C1COc1ccccc1)CC1CC1` (stereo not given), the RP-LC retention time turned out to be 857 s.
`CO[C@H]1C(=O)N(C(C)C)[C@H]1C1CCN(S(=O)(=O)c2cccc3nsnc23)CC1` returned an RP-LC retention time of 831 s.
In the case of `CCOc1ccc2ncc(S(=O)(=O)c3ccccc3)c(N3CCN(C)CC3)c2c1` it was 787 s; in that of `O=C(Nc1cnc(N2CCCC2)nc1)c1ccccc1`, 676 s.
In the case of `O=S(c1cc(Cl)cc(Cl)c1O)c1cc(Cl)cc(Cl)c1O` it was 1160 s.
The value for `CCSc1ccccc1C(=O)NCC1(c2ccccc2OC)CCOCC1` was 843 s; that for `Cc1cccc2c(=O)n(C)c(CCC(=O)NCc3cc(F)ccc3F)nc12` was 814 s.
Compound `Cc1ccc(NC(=O)Cn2cnc3nc(N4CCCC(C(=O)NC5CC5)C4)sc3c2=O)c(F)c1` (stereo not given) came in with an RP-LC retention time of 680 s.
The value for `CCc1ccccc1NC(=O)N1CCC(c2nc(C(=O)N3CCCC3)c(C)o2)CC1` was 782 s; that for `Cc1ccsc1C(=O)Nc1ccc(-c2nc(-c3ccccc3)co2)cc1` was 1160 s.
In the case of `CC(C)Oc1ccc(-c2noc(-c3nn(-c4ccc(Cl)cc4)ccc3=O)n2)cc1` it was 1060 s.
The value for `O=C(Cn1nc(C(=O)N2CCCC2)c2ccccc21)NCc1ccc2c(c1)OCO2` was 757 s; that for `CC(C)NC(=O)N(C)CCc1noc(COc2ccc(Cl)cc2)n1` was 841 s; that for `Cc1ccc(CN2N=C(C(=O)N3CCCCC3)S(=O)(=O)c3ccccc32)cc1` was 974 s.
The compound `O=C(NCC1CCCO1)C1COC2(CCN(C(=O)c3ccccc3F)CC2)N1C(=O)c1ccccc1` (stereo not given) registered an RP-LC retention time of 673 s.
The value for `O=C(c1ccc(Nc2nn3c(=O)c4ccccc4nc3s2)cc1)N1CCN(c2ccccn2)CC1` was 622 s.
In the case of `CCOC(=O)c1ccc(CNC(=O)N2CCC(c3nc4ccncc4n3C)C2)cc1` (stereo not given) it was 557 s; in that of `COc1ccc(CN2CN=C(Nc3nc(C)c4cc(C)ccc4n3)NC2)cc1`, 766 s; in that of `CC(C)S(=O)(=O)N1CC(Oc2ccccc2-c2nc(C3CC3)no2)C1`, 984 s.
For `Cc1cc2n(n1)CCCN2C(=O)CCC(=O)N1CCC(Cc2ccccc2)CC1`, the RP-LC retention time worked out at 818 s.
In the case of `CC(C)c1ccc(NC(=O)Cn2cnc3c2c(=O)n(C)c(=O)n3C)cc1` it was 816 s.
The value for `Cc1ccc(-c2nc(-c3ccc(-n4ccnc4)nc3)no2)cc1` was 794 s; that for `CC(C)NC(=O)c1ccc(OCC2CCN(C(=O)c3c(F)cccc3F)CC2)cc1` was 862 s.
In turn, `CCCCC(=O)Nc1nc(-c2ccc3c(c2)NC(=O)C(C)O3)cs1` (stereo not given) returned an RP-LC retention time of 863 s.
The value for `CCc1cccc(NS(=O)(=O)c2cc(-c3c(CC)noc3NC(C)=O)ccc2C)c1` was 900 s.
Compound `O=C(Nc1ccccc1C(F)(F)F)N1CC(n2cnnc2-c2ccccc2)C1` had an RP-LC retention time of 710 s.
The value for `CNC(=O)C1CN(S(=O)(=O)c2cccs2)CC12CCCCC2` (stereo not given) was 697 s; that for `CC1CCCN(c2ccc(-c3noc(CN4CCC(C(N)=O)CC4)n3)cn2)C1` (stereo not given) was 589 s.
The compound `CCn1c(CCC(=O)NCc2ccccc2OC)nc2ccc(C)cc2c1=O` registered an RP-LC retention time of 817 s.
The value for `Cc1ccc(Cn2cccc2C(=O)C(=O)NC2CC2)cc1` was 928 s; that for `CCOc1cc(CNC(=O)C2CCCN(C(=O)c3[nH]c(C)cc3C)C2)cc(OCC)c1OCC` (stereo not given) was 876 s.
For `CCCCCCCCc1ccc(CCC(N)(CO)CO)cc1`, the RP-LC retention time was 966 s.
In the case of `O=C(c1cc2ccccc2[nH]1)N1CCN(c2ccc(=O)n(-c3cccc(Cl)c3)n2)CC1` it was 926 s.
